From PMC7261474 (Journal of medicinal chemistry, 2020)
“And” between values parts separate entries of the source, which are not always exact repeats. Identical values can stand only once. Like-named read-outs stand apart in the source and are kept apart here. Where a SMILES comes first, the peptide text is derived from it. [ ]: non-standard residue; d: D form. The star is where a group is joined. hPhe = N[CH](CCc1ccccc1)C(=O)O; 4Pal = N[CH](Cc1ccncc1)C(=O)O; AMC = Cc1cc(=O)oc2cc(N*)ccc12; Cbz = O=C(OCc1ccccc1)*

Legend:
[1] = molecular target: T1, cruzain (Trypanosoma cruzi, UniProt P25779); assay: Cruzain-catalysed hydrolysis of fluorogenic dipeptide-AMC substrates; assay type: biochemical; details: for Km / kcat: pH 7.5, 25 °C, 10% DMSO (v/v); for kcat rel: relative to S1 Cbz-Phe-Arg-AMC, S6 and S12 from 2% DMSO data
[2] = molecular target: T1, cruzain; assay: Cruzain inhibition/inactivation, time courses with Cbz-Phe-Arg-AMC
[3] = test system: T. cruzi strain Ca-I/72 in C2C12 mouse cardiomyoblasts; details: ref [55]; cited from earlier work
[4] = test system: T. cruzi (epimastigote forms, strain Y, ATCC 50832GFP); assay: Growth inhibition of T. cruzi epimastigotes in axenic culture; assay type: cell-based, Trypanosoma cruzi; details: 5 days
[5] = test system: Primary human dermal fibroblast (HDF) cells; assay: Human cell toxicity; assay type: cell-based; details: CC50 in human dermal fibroblasts / EC50 in infected cardiomyoblasts
[6] = Covalent adduct formation with glutathione; assay type: physicochemical; details: for rate of formation of GSH adduct: 2:1 molar ratio GSH/inhibitor; for Keq of GSH adduct (apparent equilibrium): 2:1 molar ratio, equilibrium in 90 min; for reaction with GSH (adduct formation): 90 min incubation, 2:1 or 10:1 molar ratio GSH/inhibitor
[7] = molecular target: T1, cruzain; details: 2% DMSO (v/v); ref [40]; cited from earlier work
[8] = molecular target: human cathepsin L (Homo sapiens, UniProt P07711); assay: Human cathepsin L assay with Cbz-Phe-Arg-AMC; assay type: biochemical; details: pH 5.5, 25 °C, 10% DMSO
[9] = molecular target: human cathepsin B (Homo sapiens, UniProt P07858); assay: Human cathepsin B assay with Cbz-Phe-Arg-AMC; assay type: biochemical; details: pH 5.5, 25 °C, 10% DMSO
[10] = molecular target: human cathepsin S (Homo sapiens, UniProt P25774); assay: Human cathepsin S assay with Cbz-Phe-Arg-AMC; assay type: biochemical; details: pH 5.5, 25 °C, 10% DMSO
human cathepsin S, sequence (P25774 115-331): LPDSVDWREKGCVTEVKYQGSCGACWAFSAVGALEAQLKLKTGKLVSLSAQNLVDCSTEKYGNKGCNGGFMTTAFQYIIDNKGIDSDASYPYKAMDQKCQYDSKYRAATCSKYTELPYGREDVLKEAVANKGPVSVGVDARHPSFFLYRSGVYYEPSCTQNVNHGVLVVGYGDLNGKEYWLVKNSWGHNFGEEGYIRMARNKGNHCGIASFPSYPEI

T1 sequence (P25779 123-467): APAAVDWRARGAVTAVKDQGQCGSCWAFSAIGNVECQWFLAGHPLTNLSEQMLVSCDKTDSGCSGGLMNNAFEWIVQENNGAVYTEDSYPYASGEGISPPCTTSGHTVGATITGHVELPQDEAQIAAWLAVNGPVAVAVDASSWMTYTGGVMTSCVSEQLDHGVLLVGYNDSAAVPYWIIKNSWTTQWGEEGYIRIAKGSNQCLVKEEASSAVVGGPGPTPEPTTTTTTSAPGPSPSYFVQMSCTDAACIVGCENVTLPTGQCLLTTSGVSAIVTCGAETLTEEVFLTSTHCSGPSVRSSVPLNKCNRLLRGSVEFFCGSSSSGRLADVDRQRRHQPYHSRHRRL
human cathepsin L, sequence (P07711 114-333): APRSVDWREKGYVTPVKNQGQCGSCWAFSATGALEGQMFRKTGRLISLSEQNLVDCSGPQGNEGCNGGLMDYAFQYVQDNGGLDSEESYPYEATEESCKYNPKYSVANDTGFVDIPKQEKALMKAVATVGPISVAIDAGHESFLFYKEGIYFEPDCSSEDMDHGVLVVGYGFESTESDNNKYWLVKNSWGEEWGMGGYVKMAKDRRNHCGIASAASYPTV

Row | Structure (SMILES) | Km [1] [µM] | kcat [1] | kcat rel [1] | also measured
1 | Cc1cc(=O)oc2cc(NC(=O)[C@H](CCCN=C(N)N)NC(=O)[C@H](CC(C)C)NC(=O)OCc3ccccc3)ccc12 [S4, Cbz-Leu-Arg-AMC] | 2.2 ± 0.3 | 8.4 ± 0.4 s⁻¹ | 0.88 | –
2 | Cc1cc(=O)oc2cc(NC(=O)C(CCc3ccccc3)NC(=O)C(CCCN=C(N)N)NC(=O)OCc3ccccc3)ccc12 (stereo not drawn) [S10, Cbz-Arg-hPhe-AMC] | 6.8 ± 0.4 | 4.9 s⁻¹ and 4.9 ± 0.1 s⁻¹ | 0.51 | –
3 | Cc1cc(=O)oc2cc(NC(=O)[C@H](Cc3ccccc3)NC(=O)[C@H](Cc3ccccc3)NC(=O)N3CCN(C)CC3)ccc12 [S11, NMePip-Phe-Phe-AMC] | 14 ± 4 | 2.8 ± 0.06 s⁻¹ | 0.29 | –
4 | O=C(N[C@@H](Cc1ccccc1)C(=O)NC(CCc1ncccn1)Cc1ccccc1)OCc1ccccc1 (stereo in doubt) [Compound 27, Benzyl ((S)-1-Oxo-3-phenyl-1-(((S)-1-phenyl-4-(pyrimidin-2-yl)-butan-2-yl)amino)propan-2-yl)carbamate] | – | – | – | Ki [2]: 22 µM
5 | O=C(Cn1ccnc1[N+](=O)[O-])NCc1ccccc1 [benznidazole] | – | – | – | LD50 (antichagasic potency) [3]: 1.5 µM
6 | Cc1cc(=O)oc2cc(NC(=O)[C@H](CCc3ccccc3)NC(=O)[C@H](Cc3ccccc3)NC(=O)OCc3ccccc3)ccc12 [S2, Cbz-Phe-hPhe-AMC] (Cbz-Phe-[hPhe]-{AMC}) | 0.26 ± 0.06 | 2.0 ± 0.2 s⁻¹ | 0.21 | –
7 | O=C(N[C@@H](Cc1ccccc1)C(=O)N[C@H](/C=C/c1ncco1)Cc1ccccc1)OCc1ccccc1 [Compound 24, Benzyl ((S)-1-(((S,E)-4-(Oxazol-2-yl)-1-phenylbut-3-en-2-yl)-amino)-1-oxo-3-phenylpropan-2-yl)carbamate] | – | – | – | T. cruzi axenic culture EC50 [4]: poorly effective
8 | Cc1cc(=O)oc2cc(NC(=O)C(Cc3ccncc3)NC(=O)C(Cc3ccccc3)NC(=O)OCc3ccccc3)ccc12 (stereo not drawn) [S5, Cbz-Phe-(4-Pyr)Ala-AMC] (Cbz-Phe-[4Pal]-{AMC}; configuration not given here) | 3.7 ± 0.5 | 7.5 ± 0.5 s⁻¹ | 0.76 | –
9 | C[n+]1ccccc1/C=C/[C@H](CCc1ccccc1)NC(=O)[C@H](Cc1ccccc1)NC(=O)OCc1ccccc1 [Compound 15, 2-((S,E)-3-((S)-2-(((Benzyloxy)carbonyl)amino)-3-phenylpropanamido)-5-phenylpent-1-en-1-yl)-1-methylpyridin-1-ium] | – | – | – | selectivity index CC50/EC50 [5]: >20; rate of formation of GSH adduct ([6]; pH 8.0): 54 M⁻¹ s⁻¹; Keq of GSH adduct (apparent equilibrium) ([6]; pH 8.0): 2400 M⁻¹; Ki [2]: 0.6 ± 0.2 µM; k3 (eq 6) ([2]; pH 7.5, global fitting to eq 6): 0.0012 ± 0.0004 s⁻¹; k4 (eq 6) ([2]; pH 7.5, global fitting to eq 6): 0.00019 ± 0.00005 s⁻¹
10 | C[n+]1ccccc1/C=C/[C@H](Cc1ccccc1)NC(=O)[C@H](Cc1ccccc1)NC(=O)OCc1ccccc1.[I-] [Compound 12, 2-((S,E)-3-((S)-2-(((Benzyloxy)carbonyl)amino)-3-phenylpropanamido)-4-phenylbut-1-en-1-yl)-1-methylpyridin-1-ium Iodide] | – | – | – | selectivity index CC50/EC50 [5]: >10; rate of formation of GSH adduct ([6]; pH 8.0): 37 M⁻¹ s⁻¹; Keq of GSH adduct (apparent equilibrium) ([6]; pH 8.0): 7400 M⁻¹; conversion to GSH adduct ([6]; 20 min, 10:1 molar ratio of GSH to compound): 97%
11 | Cc1cc(=O)oc2cc(NC(=O)C(CCc3ccccc3)NC(=O)C(CC(C)C)NC(=O)OCc3ccccc3)ccc12 (stereo not drawn) [S3, Cbz-Leu-hPhe-AMC] (Cbz-Leu-[hPhe]-{AMC}; configuration not given here) | 0.8 ± 0.2 | 3.0 ± 0.2 s⁻¹ | – | –
12 | O=C(N[C@@H](Cc1ccccc1)C(=O)N[C@H](/C=C/c1ncccn1)Cc1ccccc1)OCc1ccccc1 [Compound 7, Benzyl ((S)-1-Oxo-3-phenyl-1-(((S,E)-1-phenyl-4-(pyrimidin-2-yl)-but-3-en-2-yl)amino)propan-2-yl)carbamate] | – | – | – | reaction with GSH (adduct formation) ([6]; pH 8.0): no adduct was observed
13 | O=C(N[C@@H](Cc1ccccc1)C(=O)N[C@H](/C=C/c1cc(C(F)(F)F)ccn1)CCc1ccccc1)OCc1ccccc1 [Compound 17, Benzyl ((S)-1-Oxo-3-phenyl-1-(((S,E)-5-phenyl-1-(4-(trifluoromethyl)pyridin-2-yl)pent-1-en-3-yl)amino)propan-2-yl)-carbamate] | – | – | – | reaction with GSH (adduct formation) ([6]; pH 8.0): no adduct was observed
14 | C[n+]1ccsc1/C=C/[C@H](Cc1ccccc1)NC(=O)[C@H](Cc1ccccc1)NC(=O)OCc1ccccc1.[I-] [Compound 26, 2-((S,E)-3-((S)-2-(((Benzyloxy)carbonyl)amino)-3-phenylpropanamido)-4-phenylbut-1-en-1-yl)-3-methylthiazol-3-ium Iodide] | – | – | – | rate of formation of GSH adduct ([6]; pH 8.0): 15 M⁻¹ s⁻¹; Keq of GSH adduct (apparent equilibrium) ([6]; pH 8.0): 930 M⁻¹
15 | Cc1cc(=O)oc2cc(NC(=O)[C@H](Cc3ccccc3)NC(=O)[C@H](Cc3ccccc3)NC(=O)OCc3ccccc3)ccc12 [S9, Cbz-Phe-Phe-AMC] (Cbz-Phe-Phe-{AMC}) | 0.34 ± 0.06 | 0.26 ± 0.01 s⁻¹ | 0.03 | –
16 | O=C(N[C@@H](Cc1ccccc1)C(=O)N[C@H](/C=C/c1ccccn1)Cc1ccccc1)OCc1ccccc1 [Compound 11, Benzyl ((S)-1-Oxo-3-phenyl-1-(((S,E)-1-phenyl-4-(pyridin-2-yl)but-3-en-2-yl)amino)propan-2-yl)carbamate] | – | – | – | T. cruzi axenic culture EC50 [4]: poorly effective; reaction with GSH (adduct formation) ([6]; pH 8.0): no adduct was observed
17 | O=C(N[C@@H](Cc1ccccc1)C(=O)N[C@H](/C=C/c1nccs1)Cc1ccccc1)OCc1ccccc1 [Compound 25, Benzyl ((S)-1-Oxo-3-phenyl-1-(((S,E)-1-phenyl-4-(thiazol-2-yl)-but-3-en-2-yl)amino)propan-2-yl)carbamate] | – | – | – | reaction with GSH (adduct formation) ([6]; pH 8.0): no adduct was observed
18 | Cc1cc(=O)oc2cc(NC(=O)C(C)NC(=O)C(Cc3ccccc3)NC(=O)OCc3ccccc3)ccc12 (stereo not drawn) [S12, Cbz-Phe-Ala-AMC] | – | – | 0.09 | Km [7]: 38 ± 2 µM; kcat [7]: 0.89 ± 0.06 s⁻¹
19 | CN1CCN(C(=O)N[C@@H](Cc2ccccc2)C(=O)N[C@H](/C=C/S(=O)(=O)c2ccccc2)CCc2ccccc2)CC1 [K11777, reference compound] | – | – | – | rate of glutathione adduct formation k ([6]; 0.5 mM compound, 1 mM GSH, pH 8.0): 0.00028 s⁻¹
20 | O=C(N[C@@H](Cc1ccccc1)C(=O)N[C@H](/C=C/c1ccccn1)CCc1ccccc1)OCc1ccccc1 [Compound 13, Benzyl ((S)-1-Oxo-3-phenyl-1-(((S,E)-5-phenyl-1-(pyridin-2-yl)pent-1-en-3-yl)amino)propan-2-yl)carbamate] | – | – | – | T. cruzi axenic culture EC50 [4]: poorly effective
21 | Cc1cc(=O)oc2cc(NC(=O)C(CCc3ccccc3)NC(=O)C(Cc3ccccc3)NC(=O)N3CCN(C)CC3)ccc12 (stereo not drawn) [S7, NMePip-Phe-hPhe-AMC] | 3.1 ± 0.3 | 4.0 ± 0.1 s⁻¹ | 0.42 | –
22 | Cc1cc(=O)oc2cc(NC(=O)[C@H](CCCN=C(N)N)NC(=O)[C@H](CCCN=C(N)N)NC(=O)OCc3ccccc3)ccc12 [S6, Cbz-Arg-Arg-AMC] (Cbz-Arg-Arg-{AMC}) | – | – | 0.75 | Km [7]: 3.7 ± 0.4 µM; kcat [7]: 7.2 ± 0.1 s⁻¹
23 | Cc1cc(=O)oc2cc(NC(=O)[C@H](CCc3ccccc3)NC(=O)[C@H](Cc3ccncc3)NC(=O)OCc3ccccc3)ccc12 [S8, Cbz-(4-Pyr)Ala-hPhe-AMC] (Cbz-[4Pal]-[hPhe]-{AMC}) | 4.6 ± 0.5 | 5.3 s⁻¹ and 5.3 ± 0.2 s⁻¹ | 0.55 | –
24 | Cc1cc(=O)oc2cc(NC(=O)[C@H](CCCN=C(N)N)NC(=O)[C@H](Cc3ccccc3)NC(=O)OCc3ccccc3)ccc12 [S1, Cbz-Phe-Arg-AMC, reference compound] (Cbz-Phe-Arg-{AMC}) | 0.89 ± 0.09 | 9.6 ± 0.2 s⁻¹ | 1.00 | Michaelis constant, cathepsin L [8]: 2.9 µM; Michaelis constant, cathepsin B [9]: 150 µM; Michaelis constant, cathepsin S [10]: 60 µM
